# Measurements published in patent US20110039763A1, “TARGETED ANTIMICROBIAL MOIETIES” (C3 JIAN, INC., priority 2009, published 2011).
# Entries after “also recorded” stand apart in the source; their conditions may differ.
# Columns and labels:
# microorganisms [1] = experiment: Targeting peptide binding to target microorganisms (Tables 3, 10, 12); conditions: peptide binding in aqueous buffers that varied with peptide solubility; preferably 1x PBS
# From the text: In certain embodiments, the targeting moiety comprises one or more targeting peptides that bind particular bacteria, fungi, and/or yeasts, and/or algae, and/or viruses and/or that bind particular groups of bacteria, and/or groups of fungi, and/or groups of yeasts, and/or groups of algae.
# In certain embodiments the targeting peptides include peptides comprising or consisting of one or more of the amino acid sequences shown in Table 3 (SEQ ID NOs:13-1566). In various embodiments the peptides include peptides comprising or consisting of the retro, inverso, retro-inverso, and/or beta form of one or more of the amino acid sequences shown in Table 3. Also contemplated are circular permutations of these sequences as well as peptides comprising or consisting of the retro, inverso, retro-inverso, and/or beta form of such circular permutations.
# In certain embodiments the targeting peptide can comprise one or more domains capable of binding, specifically binding, or preferentially binding to a microorganism, e.g., a target microbial organism (see, e.g., Table 3). In certain embodiment, the targeting peptide be identified via screening peptide libraries. For example, a phage display peptide library can be screened against a target microbial organism or a desired antigen or epitope thereof. Any peptide identified through such screening can be used as a targeting peptide for the target microbial organism.
# microorganisms [2] = experiment: Morphology, biofilm and growth disrupting peptides (Table 5); type: cell-based; design: key: A: Peptide aggregates; B: Less hyphal formation; Clumps; Diffuse clumps and small polyps; F: Diffuse growth; H: Thin; I: Growth inhibition; Microcolony formation; Rippled; Small polyps; Thick; W: Halo formation on top, microlonies on bottom
# From the text: In certain embodiments peptides that induce alterations in phenotype or other biological activities can also be used as antimicrobial effector moieties.
Substance,Target(s) (microorganism bound by the targeting peptide) (microorganisms [1]),other results
1T-3 (VLGIAGGLDAYGELVGGN; Peptide with targeting and/or antimicrobial activity),S. mutans; also recorded: S. gordonii,
1T-4 (LDAYGELVGGN; Peptide with targeting and/or antimicrobial activity),S. gordonii; also recorded: S. sanguinis; also recorded: S. oralis; also recorded: V. atypica; also recorded: L. casei; also recorded: S. mutans,
1T-6 (KFINGVLSQFVLERK; Peptide with targeting and/or antimicrobial activity),S. mutans,
1T-7 (SQRIIEPVKSPQPYPGFSVS; Peptide with targeting and/or antimicrobial activity),M. xanthus,
1T-8 (FSVAACGEQRAVTFVLLIEDLI; Peptide with targeting and/or antimicrobial activity),M. xanthus,
1T-9 (WAWAESPRCVSTRSNIHALAFRVEVAALT; Peptide with targeting and/or antimicrobial activity),M. xanthus,
1T-10 (SPAGLPGDGDEA; Peptide with targeting and/or antimicrobial activity),M. xanthus,
1T-11 (RISE; Peptide with targeting and/or antimicrobial activity),S. mutans; also recorded: S. epidermidis; also recorded: P. aeruginosa,
1T-12 (FGNIFKGLKDVIETIVKWTAAK; Peptide with targeting and/or antimicrobial activity),C. xerosis; also recorded: C. striatum; also recorded: S. epidermidis; also recorded: S. mutans,
1T-13 (FRSPCINNNSLQPPGVYPAR; Peptide with targeting and/or antimicrobial activity),S. aureus; also recorded: S. epidermidis; also recorded: P. aeruginosa,
1T-14 (ALAGLAGLISGK; Peptide with targeting and/or antimicrobial activity),S. mutans; also recorded: S. aureus; also recorded: S. epidermidis; also recorded: C. xerosis,
1T-15 (DVILRVEAQ; Peptide with targeting and/or antimicrobial activity),S. mutans,
1T-16 (IDMR; Peptide with targeting and/or antimicrobial activity),P. aeruginosa,
1T-17 (NNAIVYIS; Peptide with targeting and/or antimicrobial activity),S. mutans,
1T-18 (YSKTLHFAD; Peptide with targeting and/or antimicrobial activity),S. aureus; also recorded: S. epidermidis; also recorded: C. striatum; also recorded: P. aeruginosa,
1T-19 (PGAFRNPQMPRG; Peptide with targeting and/or antimicrobial activity),S. aureus; also recorded: S. epidermidis; also recorded: P. aeruginosa,
1T-20 (PALVDLSNKEAVWAVLDDHS; Peptide with targeting and/or antimicrobial activity),S. mutans; also recorded: P. aeruginosa,
1T-21 (YVEEAVRAALKKEARISTEDTPVNLPSFDC; Peptide with targeting and/or antimicrobial activity),S. mutans; also recorded: P. aeruginosa,
1T-22 (VPLDDGTRRPEVARNRDKDRED; Peptide with targeting and/or antimicrobial activity),S. epidermidis; also recorded: P. aeruginosa,

Substance,Target(s) (microorganism bound by the targeting peptide) (microorganisms [1]),other results
1T-23 (PALVDLSNKEAVWAVLDDHS; Peptide with targeting and/or antimicrobial activity),S. mutans; also recorded: P. aeruginosa,
1T-24 (EEAEEKLAEVSQAVKRLVR; Peptide with targeting and/or antimicrobial activity),P. aeruginosa,
1T-25 (VGLDVSVLVLFFGLQLLSVLLGAMIR; Peptide with targeting and/or antimicrobial activity),S. aureus; also recorded: S. epidermidis; also recorded: C. xerosis; also recorded: C. striatum; also recorded: P. aeruginosa,
1T-26 (LTILPTTFFAIIVPILAVAFIAYSGFKIKGIVEHKDQW; Peptide with targeting and/or antimicrobial activity),S. mutans; also recorded: S. aureus; also recorded: S. epidermidis; also recorded: C. jeikeium; also recorded: C. xerosis; also recorded: C. striatum; also recorded: P. aeruginosa,
1T-27 (ALFVSLEQFLVVVAKSVFALCHSGTLS; Peptide with targeting and/or antimicrobial activity),S. mutans; also recorded: S. aureus; also recorded: S. epidermidis; also recorded: C. jeikeium; also recorded: C. xerosis; also recorded: C. striatum; also recorded: P. aeruginosa,
1T-28 (VSRDEAMEFIDREWTTLQPAGKSHA; Peptide with targeting and/or antimicrobial activity),P. aeruginosa,
1T-29 (GSVIKKRRKRMSKKKHRKMLRRTRVQRRKLGK; Peptide with targeting and/or antimicrobial activity),S. epidermidis; also recorded: C. jeikeium; also recorded: C. xerosis; also recorded: C. striatum; also recorded: P. aeruginosa; also recorded: S. mutans; also recorded: S. aureus,
1T-30 (GKAKPYQVRQVLRAVDKLETRRKKGGR; Peptide with targeting and/or antimicrobial activity),S. aureus; also recorded: S. epidermidis; also recorded: C. xerosis; also recorded: C. striatum; also recorded: P. aeruginosa,
1T-31 (NATGTDIGEVTLTLGRFS; Peptide with targeting and/or antimicrobial activity),S. mutans; also recorded: P. aeruginosa,
PF-565 (RAEAEAQRQAEADAKRKAEEAARL; Peptide with targeting and/or antimicrobial activity),,"Organism, effect (microorganisms [2]; B. subtilis): B. subtilis (D); Organism, effect (microorganisms [2]; MRSA): MRSA (C)"
PF-571 (SDLLYYPNENREDSPAGVVKEVKE; Peptide with targeting and/or antimicrobial activity),,"Organism, effect (microorganisms [2]; B. subtilis): B. subtilis (D)"
PF-574 (LVKSGKLESPYEHSEHLTLSQEKGLE; Peptide with targeting and/or antimicrobial activity),,"Organism, effect (microorganisms [2]; B. subtilis): B. subtilis (D)"
PF-582 (NLKTIEKECPFCNNKMDIKLKD; Peptide with targeting and/or antimicrobial activity),,"Organism, effect (microorganisms [2]; E. faecalis): E. faecalis (A)"
PF-618 (KLNTLNKKDNPSLNDQDKNAVLNLLALAK; Peptide with targeting and/or antimicrobial activity),,"Organism, effect (microorganisms [2]; E. faecalis): E. faecalis (H); Organism, effect (microorganisms [2]; S. pneumoniae): S. pneumoniae (I)"
PF-624 (VFLLDSYCFVKINL; Peptide with targeting and/or antimicrobial activity),,"Organism, effect (microorganisms [2]; E. coli): E. coli (C); Organism, effect (microorganisms [2]; M. luteus): M. luteus (C); Organism, effect (microorganisms [2]; MRSA): MRSA (C); Organism, effect (microorganisms [2]; P. mirabilis): P. mirabilis (C); Organism, effect (microorganisms [2]; S. epidermidis): S. epidermidis (D); Organism, effect (microorganisms [2]; S. mutans): S. mutans (D); Organism, effect (microorganisms [2]; S. pneumoniae): S. pneumoniae (D)"
PF-670 (chain 1 TVIVAPMHSGV; chain 2 TVIVAPMHSGV; Peptide with targeting and/or antimicrobial activity),,"Organism, effect (microorganisms [2]; B. subtilis): B. subtilis (H); Organism, effect (microorganisms [2]; S. pneumoniae): S. pneumoniae (H)"
PF-C089 (MPKRHYYKLEAKALQFGLPFAYSPIQLLK; Peptide with targeting and/or antimicrobial activity),,"Organism, effect (microorganisms [2]; P. gingivalis): P. gingivalis (R)"
PF-C214 (GGHKQLVIEPLVSQ; Peptide with targeting and/or antimicrobial activity),,"Organism, effect (microorganisms [2]; F. nucleatum): F. nucleatum (T)"
PF-C293 (IIIILPKIYLVCKTV; Peptide with targeting and/or antimicrobial activity),,"Organism, effect (microorganisms [2]; F. nucleatum): F. nucleatum (T); Organism, effect (microorganisms [2]; P. gingivalis): P. gingivalis (R); Organism, effect (microorganisms [2]; S. mutans): S. mutans (F)"
